Measurements from ChEMBL document CHEMBL1141994, “Identification of an agonist ligand for estrogen-related receptors ERRbeta/gamma” (Bioorg Med Chem Lett, 2005).

Key:
Assay type in all cases: functional
[1] = target: T1, Estrogen-related receptor gamma (Homo sapiens) (UniProt P62508); test: Fold activation of estrogen-related receptor gamma at 100 nM in cell-based reporter gene assay
T1 sequence (whole entry): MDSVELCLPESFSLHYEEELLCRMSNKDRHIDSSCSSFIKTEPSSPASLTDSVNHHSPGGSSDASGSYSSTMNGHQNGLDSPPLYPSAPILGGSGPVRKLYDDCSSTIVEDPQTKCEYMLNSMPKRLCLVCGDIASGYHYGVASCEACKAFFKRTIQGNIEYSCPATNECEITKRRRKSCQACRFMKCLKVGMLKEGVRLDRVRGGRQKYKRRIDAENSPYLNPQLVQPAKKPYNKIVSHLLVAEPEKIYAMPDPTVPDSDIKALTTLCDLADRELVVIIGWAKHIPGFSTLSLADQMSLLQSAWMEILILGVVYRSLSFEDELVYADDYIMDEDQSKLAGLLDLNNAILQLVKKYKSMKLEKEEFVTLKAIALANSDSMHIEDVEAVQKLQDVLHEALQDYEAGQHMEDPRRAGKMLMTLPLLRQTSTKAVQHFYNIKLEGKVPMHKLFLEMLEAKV

[2] = target: T2, Steroid hormone receptor ERR1 (Homo sapiens) (UniProt P11474); test: Fold activation of estrogen-related receptor alpha at 100 nM in cell-based reporter gene assay
T2 sequence (whole entry): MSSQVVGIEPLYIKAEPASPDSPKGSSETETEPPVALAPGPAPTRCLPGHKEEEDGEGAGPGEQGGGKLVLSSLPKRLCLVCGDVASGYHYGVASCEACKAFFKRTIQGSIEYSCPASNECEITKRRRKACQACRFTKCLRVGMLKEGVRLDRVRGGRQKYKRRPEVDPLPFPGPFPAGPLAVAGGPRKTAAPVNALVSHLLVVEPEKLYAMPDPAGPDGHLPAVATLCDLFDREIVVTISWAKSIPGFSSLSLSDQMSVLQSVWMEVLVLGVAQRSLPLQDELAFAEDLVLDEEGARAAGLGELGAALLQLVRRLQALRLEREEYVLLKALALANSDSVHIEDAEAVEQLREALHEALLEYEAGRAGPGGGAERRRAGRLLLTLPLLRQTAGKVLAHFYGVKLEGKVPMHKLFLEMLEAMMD

[3] = target: T3, Steroid hormone receptor ERR2 (Homo sapiens) (UniProt O95718); test: Fold activation of estrogen-related receptor beta at 100 nM in cell-based reporter gene assay
T3 sequence (whole entry): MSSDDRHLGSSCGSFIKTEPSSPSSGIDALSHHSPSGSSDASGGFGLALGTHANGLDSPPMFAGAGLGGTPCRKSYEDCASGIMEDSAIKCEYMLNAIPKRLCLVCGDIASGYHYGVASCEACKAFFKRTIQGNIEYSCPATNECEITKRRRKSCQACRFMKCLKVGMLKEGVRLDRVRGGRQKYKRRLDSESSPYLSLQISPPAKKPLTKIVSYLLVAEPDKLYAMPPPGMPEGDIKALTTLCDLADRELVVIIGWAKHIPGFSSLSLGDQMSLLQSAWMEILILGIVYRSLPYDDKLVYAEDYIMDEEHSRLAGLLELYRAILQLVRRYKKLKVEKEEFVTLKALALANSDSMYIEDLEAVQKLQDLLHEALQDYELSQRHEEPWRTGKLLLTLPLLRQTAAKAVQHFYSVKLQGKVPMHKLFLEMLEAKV

Work on `C[C@]12CC[C@@H]3c4ccc(O)cc4CC[C@H]3[C@@H]1CC[C@@H]2O` yielded an Activity [1] of 0.8, an Activity [2] of 1.1 and an Activity [3] of 1.
